# Results published in patent US9420799B2, “Method for controlling nematode pests” (Syngenta Participations AG, priority 2011, dated 2016).
# System: soybean cyst nematode (SCN)
# Assay: Yield response field trials: soybean seed treated with Pasteuria nishizawae, compared with seed not treated with Pasteuria
# Type: in vivo, Heterodera glycines
# Settings: for Yield Response for Resistant Varieties / Yield Response for Susceptible Varieties: approx. 1×10^7 spores/seed, percent yield increase vs seeds not treated with Pasteuria, averaged; for Yield Response for Susceptible Varieties: SCN susceptible soybean varieties
# Procedure: Yield Response Experiment
# Multiple field trials were conducted across the United States Midwest region. Baseline nematode populations were determined by sampling from 4 untreated plots. Samples were taken (10 cores per plot) at a depth of 6-8 inches (approx. 15.2-20.3 cm). Samples were stored in a cooler until laboratory assays (eggs/100 cc) were performed.
# To allow for sufficient viability to assess results properly, both SCN resistant and susceptible varieties were treated with an insecticide and fungicide seed treatment (CRUISERMAXX seed treatment for beans available from Syngenta Crop Protection, LLC including thiamethoxam (22.61%); mefenoxam (1.70%) and fludioxonil (1.12%)). In addition for some test groups Pasteuria nishizawae treatment was applied at a rate of approximately 1×10^7 spores/seed. Percent yield increase was determined by comparing seeds treated with Pasteuria to those not treated with Pasteuria.
# The results of 119 separate trials were sorted according to initial SCN pressure at trial location. Yield data were averaged.
substance,measurement,setting,value
Pasteuria nishizawae,Yield Response for Resistant Varieties,"SCN resistant soybean varieties, SCN pressure 0 eggs/100 cc",0.3%
same,Yield Response for Resistant Varieties,"SCN resistant soybean varieties, SCN pressure 1-500 eggs/100 cc",0.7%
same,Yield Response for Resistant Varieties,"SCN resistant soybean varieties, SCN pressure 501-1000 eggs/100 cc",2.6%
same,Yield Response for Resistant Varieties,"SCN resistant soybean varieties, SCN pressure >1000 eggs/100 cc",5.2%
same,"Yield of resistant varieties, result in words","SCN resistant soybean varieties, all pest pressures",showed increase yield over non-Pasteuria treated soybean seed regardless of pest pressure
same,Yield Response for Susceptible Varieties,SCN pressure 0 eggs/100 cc,1.3%
same,Yield Response for Susceptible Varieties,SCN pressure 1-500 eggs/100 cc,1.0%
same,Yield Response for Susceptible Varieties,SCN pressure 501-1000 eggs/100 cc,0.8%
same,Yield Response for Susceptible Varieties,SCN pressure >1000 eggs/100 cc,0.0%
same,"Yield of varieties with no resistance or tolerance to SCN, result in words","soybean varieties having no resistance or tolerance to SCN, benefit mostly in absence of or with low pest pressure",generally benefitted from treatment with Pasteuria
